Source: patent US20220024921A1, “1,3,4-OXADIAZOLONE COMPOUND AND PHARMACEUTICAL” (NIPPON SHINYAKU CO., LTD., priority 2018, published 2022)

Key:
[1] = biological target: PIM2 transgenic cells (Ba/F3) (Homo sapiens, UniProt Q9P1W9); assay: Proliferation inhibitory effect on PIM2 transgenic cells; type: cell-based, mouse; details: proliferation inhibition, 72 hours, Cell Counting Kit-8, read-out: PIM2 IC50
Description: Human PIM1, 2, and 3 genes were inserted into the multi-cloning sites of retrovirus expression vectors pMYs-IRES-GFP, respectively, to prepare gene transfer vectors. Then, each gene transfer vector was introduced into packaging cells PLAT-E derived from a human fetal kidney cell line in the logarithmic growth phase, using a transfection reagent (FuGENE6, Promega Corporation). Since the culture supernatant of PLAT-E after gene transfer contained virus particles for gene transfer, the culture supernatant was collected and used as a medium for gene transfer. The medium for gene transfer was added to a plate coated with RetroNectin, and the plate was incubated to attach the virus particles to the plate. Then, a mouse pro-B cell line Ba/F3 in the logarithmic growth phase was seeded on the plate and infected with the virus to prepare PIM1, 2, or 3 transgenic cells that proliferate in a PIM 1, 2, or 3-dependent manner. The expression of PIM1, 2, or 3 protein in each cell was confirmed by Western blotting.
Each test substance was prepared to 10 mM with dimethylsulfoxide (DMSO), and diluted with DMSO so as to have concentrations of 3000, 1000, 300, 100, 30, 10, 3, and 1 μM. Moreover, each dilution was further diluted 10-fold with distilled water to prepare a test substance solution.
PIM1, 2, 3-expressing cells were seeded on a 96-well plate, and each test substance solution prepared the next day was added such that final concentrations were 10000, 3000, 1000, 300, 100, 30, 10, 3, and 1 nM. 72 hours after the addition, 10 μL of Cell Counting Kit-8 (DOJINDO LABORATORIES) was added to each well. After incubation for 1 to 4 hours, absorbance OD450 at 450 nm was measured. In addition, absorption OD650 at 650 nm as a reference wavelength was measured.
OD450-OD650 for each condition was calculated, and then the inhibition rates when OD450-OD650 of negative control (DMSO only) and OD450-OD650 of Blank (without cells) were set to 0% and 100%, respectively, were calculated. Then, non-linear regression analysis was performed for logarithmic dose and inhibition rate using a two-parameter logistic model to estimate IC50 values.
For the compounds with the following Example numbers, in addition to the above proliferation inhibitory effect on PIM1 transgenic cells, the proliferation inhibitory effect on PIM2 transgenic cells and the proliferation inhibitory effect on PIM3 transgenic cells were calculated as IC50.

NZB/W F1 mice = assay: Inhibitory effect on systemic lupus erythematosus and lupus nephritis model animals; type: in vivo; details: for survival rate / onset rate of proteinuria / anti-double-stranded DNA antibody titer: NZB/W F1 mice, 15, 30 mg per 1 kg twice a day for 15 weeks; for onset rate of proteinuria: UACR>20 = proteinuria-positive; for anti-double-stranded DNA antibody titer / Anti-double-stranded DNA antibody titer (U/mL): plasma, final day of administration; for Number of proteinuria-positive individuals: UACR>20 defined as positive; for Anti-double-stranded DNA antibody titer (U/mL): median of group; for Number of dead/euthanized individuals: until the final day of administration
Description: For the evaluation of test substances, NZB/W F1 mice (29, 30-week-aged female), which are model mice with systemic lupus erythematosus and lupus nephritis, were used. These mice are a spontaneous animal model, and an increase in autoantibodies such as anti-double-stranded DNA antibody, which is considered to be a cause of systemic lupus erythematosus, and proteinuria, which is a characteristic of lupus nephritis, are observed for the mice, and the mice are known to die from nephritis.
Urine was collected before the start of the test, and individuals with a urinary albumin concentration÷urinary creatinine concentration (UACR) value of 5 or more were excluded. Furthermore, the anti-double-stranded DNA antibody titer in blood and the body weight were measured before the start of the test, and 53 mice were grouped into 5 groups of 10 or 13 mice based on blood anti-double-stranded DNA antibody titer, age, and body weight. Since early death was expected for the vehicle-administered group, the test was conducted with 13 mice as this group.
Example 75 and Example 202 were used as test substances, and a 0.5% methyl cellulose solution which is a vehicle was used as a control. Example 75 and Example 202 were prepared into solutions of 1.5 and 3.0 mg/mL by being dissolved in a 0.5% methyl cellulose solution.
After grouping, the 0.5% methyl cellulose solution or the 1.5 or 3.0 mg/mL solution of Example 75 or Example 202 was administered to each of the mice of the 7 groups. The single dose was set to 10 mL per 1 kg of body weight, and the dose was administered twice a day. Under these conditions, the dose per time is 15, 30 mg per 1 kg of body weight. Administration was started on 29 or 30-week-aged mice, and was performed daily for 15 weeks until the age of 44 or 45 weeks.
Blood was collected from the tail vein of each of all the surviving individuals on the final day of administration. Then, the blood was centrifuged and the plasma was separated and taken. The plasma was diluted 3000-fold, and the anti-double-stranded DNA antibody titer was measured by ELISA method (Levis anti-dsDNA-mouse ELISA Kit, FUJIFILM Wako Shibayagi Corporation). Measurement and analysis were performed according to the protocol of the Kit.
All the surviving individuals on the final day of administration were bred in a mouse metabolism cage (CLEA Japan, Inc.) for 16 hours, and urine was collected from each individual. The solids were removed by centrifuging the urine and collecting the supernatant. An automatic analyzer (JCA-BM6050 BioMajesty, JEOL Ltd.) was used to measure the albumin concentration and creatinine concentration in urine after centrifugation. A urinary albumin/creatinine ratio (UACR) was calculated by dividing the albumin concentration by the creatinine concentration, and individuals with UACR>20 were defined as proteinuria-positive individuals. In addition, for almost all the individuals that died before the final day of administration, UACR>20 was confirmed in urinalysis immediately before death, and thus these individuals were treated as proteinuria-positive individuals.

[2] = biological target: PIM1 transgenic cells (Ba/F3) (Homo sapiens, UniProt P11309); assay: Proliferation inhibitory effect on PIM1 transgenic cells; type: cell-based, mouse; details: proliferation inhibition, 72 hours, Cell Counting Kit-8, read-out: PIM1 IC50
Summary of the method: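 Mouse Ba/F3 pro-B cells were retrovirally transduced with human PIM1 so that their proliferation depends on PIM1. Cells were treated with compound at 1–10000 nM final for 72 h, then read by CCK-8 (OD450−OD650). Inhibition was set against DMSO (0%) and no-cell blank (100%), and IC50 was obtained by two-parameter logistic regression.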

[3] = single dose 15 mg/kg twice a day for 15 weeks
[4] = single dose 30 mg/kg twice a day for 15 weeks

Sequence of PIM2 transgenic cells (Ba/F3) (Q9P1W9 whole entry, stated change not applied): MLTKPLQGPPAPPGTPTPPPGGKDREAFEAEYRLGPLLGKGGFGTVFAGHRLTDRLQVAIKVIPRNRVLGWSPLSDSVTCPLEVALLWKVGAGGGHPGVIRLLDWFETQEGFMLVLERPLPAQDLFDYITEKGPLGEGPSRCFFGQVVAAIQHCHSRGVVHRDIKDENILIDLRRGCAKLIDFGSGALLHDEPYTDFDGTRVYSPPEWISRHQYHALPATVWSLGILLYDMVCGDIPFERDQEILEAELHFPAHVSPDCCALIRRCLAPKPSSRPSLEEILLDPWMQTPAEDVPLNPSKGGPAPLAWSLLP
Sequence of PIM1 transgenic cells (Ba/F3) (P11309 whole entry, stated change not applied): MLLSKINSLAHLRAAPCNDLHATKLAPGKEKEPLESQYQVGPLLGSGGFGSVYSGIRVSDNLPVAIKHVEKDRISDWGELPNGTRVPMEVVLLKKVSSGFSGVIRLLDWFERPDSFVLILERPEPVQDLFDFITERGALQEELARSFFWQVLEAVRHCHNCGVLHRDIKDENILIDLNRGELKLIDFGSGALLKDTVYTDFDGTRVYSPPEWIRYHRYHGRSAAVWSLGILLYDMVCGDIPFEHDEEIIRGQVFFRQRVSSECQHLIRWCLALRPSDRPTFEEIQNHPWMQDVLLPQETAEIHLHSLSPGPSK

Row | SMILES | GI50 [1] | survival rate (NZB/W F1 mice) | onset rate of proteinuria (NZB/W F1 mice) | anti-double-stranded DNA antibody titer (NZB/W F1 mice) | Number of proteinuria-positive individuals (NZB/W F1 mice; [3]) | Anti-double-stranded DNA antibody titer (U/mL) (NZB/W F1 mice; [3]) | Number of dead/euthanized individuals (NZB/W F1 mice; [3]) | Number of proteinuria-positive individuals (NZB/W F1 mice; [4]) | Anti-double-stranded DNA antibody titer (U/mL) (NZB/W F1 mice; [4]) | Number of dead/euthanized individuals (NZB/W F1 mice; [4]) | GI50 [2]
1 | C[C@H](Nc1cc(-c2n[nH]c(=O)o2)cc(F)c1C(F)(F)F)C1CCNCC1.Cl [Example 75, 5-[3-fluoro-5-{[(1S)-1-(piperidin-4-yl)ethyl]amino}-4-(trifluoromethyl)phenyl]-1,3,4-oxadiazol-2(3H)-one hydrochloride] | 620 nM | improving the survival rate | decreasing the onset rate of proteinuria | suppressing an increase in anti-double-stranded DNA antibody titer | 2/10 | 423 U/mL | 0/10 | 0/10 | 306 U/mL | 0/10 | 24 nM
2 | C[C@H](Nc1cc(-c2n[nH]c(=O)o2)cc(F)c1OC(F)(F)F)C1CCNCC1.Cl [Example 202, 5-[3-fluoro-5-{[(1S)-1-(piperidin-4-yl)ethyl]amino}-4-(trifluoromethoxy)phenyl]-1,3,4-oxadiazol-2(3H)-one hydrochloride] | 790 nM | improving the survival rate | decreasing the onset rate of proteinuria | suppressing an increase in anti-double-stranded DNA antibody titer | 1/10 | 568 U/mL | 1/10 | 1/10 | 112 U/mL | 1/10 | 26 nM
